Measured values reported in patent US11576923B2, “Composition for improving skin elasticity comprising novel ginsenoside” (AMOREPACIFIC CORPORATION, priority 2019, dated 2023).

Key:
Type in all cases: cell-based
[1] = system: collagen biosynthesis in normal human dermal fibroblasts (NHDFs); assay: Collagen biosynthesis-promoting effect (procollagen mRNA by Q-PCR, secreted collagen protein by ELISA)
Description: Normal human dermal fibroblasts (NHDFs; ATCC) were cultured in Dulbecco's modified Eagle's medium (Sigma) supplemented with 10% fetal bovine serum (FBS; Hyclone) and 1 (w/v) % penicillin/streptomycin (Sigma) at 37° C. in a 5% CO2 incubator. For collagen synthesis, after replacing the medium with serum-free Dulbecco's modified Eagle's medium, the cells were treated with GS #10, which is a novel ginsenoside according to an exemplary embodiment of the present disclosure, and ginsenosides GS #01-GS #06 as comparative examples of the present disclosure, which were isolated from the ginseng seed extract, for 24 hours at a concentration of 10 μg/mL, respectively. Fibroblast growth factor 1 (FGF1) was used as a positive control group for inducing collagen synthesis. After recovering the cells and extracting RNA using a TRIzol™ reagent (Thermo), cDNA was synthesized using a ReverdAid 1st strand cDNA synthesis kit (Thermo). Then, the change in the amount of procollagen mRNA was observed using a gene amplifier (CFX96 thermocycler, Bio-Rad) (FIG. 11), and the amount of the collagen protein secreted to the medium was measured using a collagen ELISA kit (Abcam) (FIG. 12) […]

[2] = system: matrix metalloproteinase-1 (MMP-1) expression in normal human dermal fibroblasts (NHDFs); assay: Collagen degradation-inhibiting effect (TNFα-induced MMP-1 mRNA by Q-PCR, secreted MMP-1 protein by ELISA)
Source text: For skin elasticity to be maintained, the synthesis of collagen should be promoted and its degradation should be inhibited. Because collagen is degraded by matrix metalloproteinase-1 (MMP-1), it was investigated whether the ginseng seed-derived ginsenosides inhibit the expression of the collagen-degrading enzyme. After pretreating normal human dermal fibroblasts (NHDFs; ATCC) with GS #10, which is a novel ginsenoside according to an exemplary embodiment of the present disclosure, and ginsenosides GS #01-GS #06 as comparative examples of the present disclosure, which were isolated from the ginseng seed extract, under a serum-free condition in the same manner as in Test Example 1 for 2 hours at a concentration of 10 μg/mL, respectively, the cells were treated for 24 hours with a substance capable of inducing inflammatory response (TNFα; 10 ng/mL), which can promote the expression of MMP-1. After preparing RNA and cDNA in the same manner as in Test Example 1, the expression of MMP-1 mRNA was investigated by Q-PCR (FIG. 13), and the amount of the secreted MMP-1 protein was analyzed using a human MMP-1 ELISA kit (Abcam) (FIG. 14). […] Through this, it was confirmed that Compound 10 (GS #10), which is a novel ginsenoside of the present disclosure, can effectively improve skin elasticity by alleviating or delaying the decline in skin elasticity and the formation of wrinkles. […]

SH-SY5Y cells = assay: Cytotoxicity (CCK-8 cell viability); conditions: 0.1, 1, 5, 10, 20 and 50 μM, FIG. 19
Description: Cell growth in the presence of the novel ginsenoside GS #10 according to an exemplary embodiment of the present disclosure was evaluated using a cell counting kit (CCK-8) in order to exclude the possibility that the ginsenoside may affect the effect of improving skin elasticity or improving wrinkles through cytotoxic activity. The experimental method is as follows.
10 μL of a CCK-8 reagent was added to SH-SY5Y cells (Dojindo, Md., USA) in a 96-well plate and left at 37° C. for 2 hours. Then, absorbance was measured at 450 nm. Cell viability was represented as the percentage (%) of the absolute optical density of each sample relative to an untreated sample. The concentration of the novel ginsenoside GS #10 according to an exemplary embodiment of the present disclosure in the medium in which the cells were cultured was 0.1, 1, 5, 10, 20 and 50 μM, respectively.

CC1(C)C(=O)CC[C@@]2(C)C1[C@@H](O[C@H]1OC(CO)[C@H](O)C(O)C1O[C@H]1OC(CO)[C@H](O)C(O)C1O)C[C@]1(C)C2C[C@@H](O)C2C([C@]3(C)CC[C@H](C(C)(C)O)O3)CC[C@]21C (stereo partly drawn) [Compound 10, (20S,24R)-6-O-β-D-glucopyranosyl(1→2)-β-D-glucopyranoside-dammar-3-one-20,24-epoxy-6a,12b,25-triol]
increase in the amount of collagen due to promoted collagen biosynthesis ([1]; NHDFs, 10 μg/mL, 24 hours, serum-free, vs control group (−), FIG. 11 and FIG. 12): about 2 times | increase of collagen synthesis ([1]; Test Example 3, same manner as Test Example 1, FIG. 15 and FIG. 16): ≥ 2 times | effect of inhibiting MMP-1 expression as compared to Compounds 1-6 ([2]; NHDFs, 10 μg/mL pretreatment 2 hours, then TNFα 10 ng/mL 24 hours, FIG. 13 and FIG. 14): 2-3 times higher | effect of inhibiting collagen degradation as compared to the three red ginseng marker ginsenosides ([2]; Test Example 3, same manner as Test Example 2, FIG. 17 and FIG. 18): remarkably excellent effect of inhibiting collagen degradation | cytotoxicity (cell viability, CCK-8) (SH-SY5Y cells): did not exhibit cytotoxicity up to 50 μM
